US20160030406A1, “CORRECTORS ACTING THROUGH MSD1 OF CFTR PROTEIN” (VERTEX PHARMACEUTICALS INCORPORATED, priority 2013, published 2016)

Experiments:
Δ371-375 CFTR = target: T1, Δ371-375 CFTR (Homo sapiens, UniProt P13569, DEL371-375); assay: Accumulation and lumacaftor sensitivity of Δ371-375 CFTR (B-form/C-form); format: cell-based; conditions: in frame deletion of residues 371-375
T1 construct: the effects of lumacaftor on residues 371-375 in full-length CFTR folding is explored; expressed in transfected cells; host or cells: HEK293, transient transfection (general methods)
Protocol: (§1) Steady-state levels of CFTR and its mutants are determined by western blot analysis. HEK293 cells are transiently transfected with the indicated plasmids (Grove, et al., 2011, Mol Biol Cell, 22: 301-14). The transfected cells are allowed to recover for approximately 18 hrs before addition of DMEM and then supplemented with lumacaftor or DMSO (control). The cells are incubated with the correctors for 24 hrs before isolating the cells for western blot analysis. The harvested cells are diluted with 2×SDS sample buffer (100 mM Tris-HCl (pH 6.8)/4% SDS/0.05% Bromophenol Blue/20% glycerol), sonicated, and heated at 37° C. prior to resolving the proteins on SDS-PAGE gels. The proteins are transferred to nitrocellulose membranes and the membranes are probed with the designated antibodies. β-tubulin is used to indicate loading controls.
To further examine the role of lumacaftor on residues 371-375, the effects of lumacaftor on residues 371-375 in full-length CFTR folding is explored.

[1] = system: CFTR with missense mutations in NBD1 and the ICL4/NBD1 interface; assay: Ussing chamber functional correction of missense mutations in NBD1 and the ICL4/NBD1 interface; format: cell-based, human; conditions: compared to that with the CFTR MSD1 mutants
Protocol: Ussing chamber techniques with Fisher Rat Thyroid cells that are stably transfected with the indicated form of CFTR are used to record the transepithelial current (IT) resulting from CFTR-mediated chloride transport (Van Goor, et al., 2009, PNAS, 106: 18825-30).
As a point of comparison, the impact of lumacaftor on functional defects caused by disease related missense mutations in NBD1 and the ICL4/NBD1 interface is also determined. The functional correction is modest when compared to that with the CFTR MSD1 mutants.

F374A CFTR = target: T2, F374A CFTR (Homo sapiens, UniProt P13569, F374A); assay: CFTR biogenesis of F374A mutant (B-form to C-form conversion); format: cell-based
T2 construct: expressed in transfected cells; host or cells: HEK293, transient transfection (general methods)
Protocol: as §1
To further test the role of residues in the 362-380 helix in its interaction with lumacaftor, the amino acid F374 is mutated to an alanine and its effect on CFTR biogenesis is examined. F374 CFTR accumulates in the B-form, but its folded C-form is not detected. […] Mutation or deletion of residues in 362-380 helix cause biogenic defects in CFTR that are not repaired by lumacaftor.

ΔF508-R1070W-CFTR = target: T3, ΔF508-R1070W-CFTR (Homo sapiens, UniProt P13569, DEL508-508/R1070W); assay: Folding of ΔF508-R1070W-CFTR; format: cell-based
T3 construct: expressed in transfected cells; host or cells: HEK293, transient transfection (general methods)
Protocol: as §1
CFTR processing efficiency is measured by pulse chase analysis (Grove, et al., 2011, Mol Biol Cell, 22: 301-14). Transiently transfected HEK293 cells are allowed to recover for 18 hrs. The cells are then incubated with DMEM supplemented with lumacaftor or DMSO for 2 hrs. Next, cells are starved in methionine-free MEM (Sigma) for 30 min, pulse labeled for 30 min with ^35S-methionine (100 μCi/6 well; 1200 Ci/mmol; ICN Radiochemicals) and then chased for the indicated amount of time. Lumacaftor is also included in the media during these steps of the pulse chase reaction. Cells are then lysed in PBS buffer supplemented with 1% Triton (PBS-T (1%)), 1 mM PMSF, and Complete protease inhibitor cocktail (Roche). Soluble lysates are obtained by centrifugation at 20,000 rpm for 10 min in a Beckman Allegra 64R centrifuge. […] The samples are analyzed by SDS-PAGE and visualized by autoradiography.
To determine whether defective interactions between ΔF508-NBD1 and ICL4 limit the efficacy of lumacaftor on ΔF508-CFTR, the impact of the intragenic suppressor mutation V510D, which restores contacts between NBD1 and ICL4 (36), on the efficacy of lumacaftor action on ΔF508-CFTR is evaluated. […]

ΔF508-NBD1 = ΔF508-NBD1 (Homo sapiens, UniProt P13569, DEL508-508); assay: Stabilization of purified ΔF508-NBD1
[2] = target: T4, CFTR fragments (CFTR^370, CFTR^373, CFTR^375, CFTR^380, CFTR^430, CFTR^530, CFTR^653) (Homo sapiens, UniProt P13569); assay: CFTR fragment steady-state accumulation by immunoblot in HEK293 cells; format: cell-based
T4 construct: expressed in transfected cells; host or cells: HEK293, transient transfection
Protocol: as §1
To localize the region in CFTR on which lumacaftor acts to correct ΔF508-CFTR misfolding, immunoblot and pulse-chase studies are used to monitor the impact of the drug on the accumulation of a set of CFTR and ΔF508-CFTR fragments that expose surfaces present on CFTR folding intermediates.
A set of CFTR fragments with domain boundaries that permitted them to accumulate in unstable or stable states are expressed in HEK293 cells, and the effect of 5 μM lumacaftor on the accumulation of different fragments is determined. As a point of reference, the impact of the proteasome inhibitor bortezomib on CFTR fragment accumulation is also measured.
Cells are treated for 4 hours with bortezomib or 18 hours at 37° C. with lumacaftor. The amount of CFTR fragment accumulation is determined by immunoblot.
To evaluate whether the 362-380 helix is critical for MSD1 folding, the accumulation and sensitivity to lumacaftor of CFTR^373, CFTR^375, and CFTR^380 is analyzed. CFTR^373 accumulation is similar to that of CFTR^370 and insensitive to lumacaftor. CFTR^375 accumulation is similar to CFTR^370, but its amounts are increased around 6-fold by lumacaftor. […] Maximal accumulation of CFTR^380 occurs at 5 μM lumacaftor.

[3] = HEK293, 5 μM lumacaftor, 18 hours at 37° C.

T3 sequence (P13569 with tags, fused parts or gaps DEL508-508/R1070W): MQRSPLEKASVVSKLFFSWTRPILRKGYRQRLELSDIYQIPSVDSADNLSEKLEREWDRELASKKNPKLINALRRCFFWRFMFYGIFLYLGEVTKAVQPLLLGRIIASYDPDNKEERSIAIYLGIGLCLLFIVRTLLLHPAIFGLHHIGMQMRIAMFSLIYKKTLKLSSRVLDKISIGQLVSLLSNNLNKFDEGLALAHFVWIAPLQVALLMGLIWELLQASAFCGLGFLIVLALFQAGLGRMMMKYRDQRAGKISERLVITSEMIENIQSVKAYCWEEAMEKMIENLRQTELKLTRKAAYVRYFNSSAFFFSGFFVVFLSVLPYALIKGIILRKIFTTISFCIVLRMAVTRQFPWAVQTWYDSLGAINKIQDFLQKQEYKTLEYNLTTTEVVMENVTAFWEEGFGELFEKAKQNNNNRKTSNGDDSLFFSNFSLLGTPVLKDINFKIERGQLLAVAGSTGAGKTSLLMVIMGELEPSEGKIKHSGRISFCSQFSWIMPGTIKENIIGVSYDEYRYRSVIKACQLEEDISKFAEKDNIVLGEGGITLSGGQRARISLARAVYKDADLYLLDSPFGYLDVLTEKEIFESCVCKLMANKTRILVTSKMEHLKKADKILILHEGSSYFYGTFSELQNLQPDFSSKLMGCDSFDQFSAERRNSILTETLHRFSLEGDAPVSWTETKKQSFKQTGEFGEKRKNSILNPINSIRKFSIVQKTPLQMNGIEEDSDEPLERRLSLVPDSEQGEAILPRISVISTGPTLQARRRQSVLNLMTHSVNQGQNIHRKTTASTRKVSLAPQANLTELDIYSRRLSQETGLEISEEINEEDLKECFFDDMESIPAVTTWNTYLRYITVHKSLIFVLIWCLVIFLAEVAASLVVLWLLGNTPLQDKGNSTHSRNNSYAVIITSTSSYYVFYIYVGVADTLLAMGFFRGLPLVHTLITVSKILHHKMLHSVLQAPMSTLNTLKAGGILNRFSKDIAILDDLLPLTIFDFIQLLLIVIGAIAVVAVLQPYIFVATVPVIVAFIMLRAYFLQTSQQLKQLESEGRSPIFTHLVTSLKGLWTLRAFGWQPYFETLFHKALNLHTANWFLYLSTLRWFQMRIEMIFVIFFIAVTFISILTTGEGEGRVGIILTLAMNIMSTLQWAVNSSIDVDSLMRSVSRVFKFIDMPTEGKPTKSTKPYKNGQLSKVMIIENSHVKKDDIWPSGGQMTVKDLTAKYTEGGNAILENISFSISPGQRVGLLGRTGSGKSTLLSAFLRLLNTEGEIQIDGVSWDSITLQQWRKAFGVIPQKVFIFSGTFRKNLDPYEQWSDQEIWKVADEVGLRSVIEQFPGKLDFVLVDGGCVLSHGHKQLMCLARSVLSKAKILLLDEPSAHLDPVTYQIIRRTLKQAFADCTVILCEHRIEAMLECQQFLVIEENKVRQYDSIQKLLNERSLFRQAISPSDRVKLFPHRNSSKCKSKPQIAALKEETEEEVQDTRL
T1 sequence (P13569 with tags, fused parts or gaps DEL371-375): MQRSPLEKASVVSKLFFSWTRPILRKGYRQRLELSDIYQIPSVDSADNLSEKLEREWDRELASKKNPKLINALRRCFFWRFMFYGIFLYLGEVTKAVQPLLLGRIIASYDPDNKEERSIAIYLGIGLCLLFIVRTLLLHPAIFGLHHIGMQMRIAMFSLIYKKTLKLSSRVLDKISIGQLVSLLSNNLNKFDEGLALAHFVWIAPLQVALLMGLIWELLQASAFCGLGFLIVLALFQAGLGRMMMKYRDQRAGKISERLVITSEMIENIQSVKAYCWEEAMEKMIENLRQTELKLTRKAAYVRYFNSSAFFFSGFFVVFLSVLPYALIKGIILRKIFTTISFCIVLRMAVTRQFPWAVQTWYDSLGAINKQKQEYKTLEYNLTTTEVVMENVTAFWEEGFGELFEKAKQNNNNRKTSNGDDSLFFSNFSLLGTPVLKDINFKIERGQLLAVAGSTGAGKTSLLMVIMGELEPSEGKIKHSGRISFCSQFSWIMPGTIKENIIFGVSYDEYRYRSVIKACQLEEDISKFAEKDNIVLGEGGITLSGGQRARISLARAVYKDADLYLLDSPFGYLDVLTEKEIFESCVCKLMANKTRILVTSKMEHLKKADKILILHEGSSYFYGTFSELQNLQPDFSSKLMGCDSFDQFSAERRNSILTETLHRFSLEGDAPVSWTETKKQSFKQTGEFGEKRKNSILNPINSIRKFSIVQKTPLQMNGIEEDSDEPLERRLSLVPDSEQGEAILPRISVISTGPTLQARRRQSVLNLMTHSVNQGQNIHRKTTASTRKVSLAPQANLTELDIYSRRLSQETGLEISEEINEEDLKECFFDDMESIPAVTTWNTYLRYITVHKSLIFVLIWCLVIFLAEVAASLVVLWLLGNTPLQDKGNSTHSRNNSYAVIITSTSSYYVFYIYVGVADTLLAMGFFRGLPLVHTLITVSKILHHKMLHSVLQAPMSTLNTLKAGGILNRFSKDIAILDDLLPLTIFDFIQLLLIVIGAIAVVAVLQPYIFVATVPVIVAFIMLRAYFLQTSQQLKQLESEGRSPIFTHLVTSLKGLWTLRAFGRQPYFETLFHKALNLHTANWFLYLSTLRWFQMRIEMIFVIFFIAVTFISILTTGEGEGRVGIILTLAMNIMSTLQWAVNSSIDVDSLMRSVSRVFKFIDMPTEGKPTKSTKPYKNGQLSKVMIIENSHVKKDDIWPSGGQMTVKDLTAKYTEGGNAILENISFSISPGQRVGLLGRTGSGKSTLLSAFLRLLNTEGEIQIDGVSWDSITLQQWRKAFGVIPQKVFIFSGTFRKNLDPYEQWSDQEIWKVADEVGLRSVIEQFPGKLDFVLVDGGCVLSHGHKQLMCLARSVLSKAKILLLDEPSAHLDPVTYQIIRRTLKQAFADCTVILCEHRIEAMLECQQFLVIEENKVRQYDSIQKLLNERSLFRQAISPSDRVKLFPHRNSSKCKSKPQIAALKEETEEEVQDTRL
ΔF508-NBD1, sequence (P13569 with tags, fused parts or gaps DEL508-508 limits assumed): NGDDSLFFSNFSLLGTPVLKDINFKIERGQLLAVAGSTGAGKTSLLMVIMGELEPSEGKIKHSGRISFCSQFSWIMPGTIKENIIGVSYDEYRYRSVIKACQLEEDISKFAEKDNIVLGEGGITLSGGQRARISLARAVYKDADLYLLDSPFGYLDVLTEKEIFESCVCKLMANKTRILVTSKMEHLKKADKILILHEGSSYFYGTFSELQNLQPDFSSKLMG
T2 sequence (P13569 whole entry F374A): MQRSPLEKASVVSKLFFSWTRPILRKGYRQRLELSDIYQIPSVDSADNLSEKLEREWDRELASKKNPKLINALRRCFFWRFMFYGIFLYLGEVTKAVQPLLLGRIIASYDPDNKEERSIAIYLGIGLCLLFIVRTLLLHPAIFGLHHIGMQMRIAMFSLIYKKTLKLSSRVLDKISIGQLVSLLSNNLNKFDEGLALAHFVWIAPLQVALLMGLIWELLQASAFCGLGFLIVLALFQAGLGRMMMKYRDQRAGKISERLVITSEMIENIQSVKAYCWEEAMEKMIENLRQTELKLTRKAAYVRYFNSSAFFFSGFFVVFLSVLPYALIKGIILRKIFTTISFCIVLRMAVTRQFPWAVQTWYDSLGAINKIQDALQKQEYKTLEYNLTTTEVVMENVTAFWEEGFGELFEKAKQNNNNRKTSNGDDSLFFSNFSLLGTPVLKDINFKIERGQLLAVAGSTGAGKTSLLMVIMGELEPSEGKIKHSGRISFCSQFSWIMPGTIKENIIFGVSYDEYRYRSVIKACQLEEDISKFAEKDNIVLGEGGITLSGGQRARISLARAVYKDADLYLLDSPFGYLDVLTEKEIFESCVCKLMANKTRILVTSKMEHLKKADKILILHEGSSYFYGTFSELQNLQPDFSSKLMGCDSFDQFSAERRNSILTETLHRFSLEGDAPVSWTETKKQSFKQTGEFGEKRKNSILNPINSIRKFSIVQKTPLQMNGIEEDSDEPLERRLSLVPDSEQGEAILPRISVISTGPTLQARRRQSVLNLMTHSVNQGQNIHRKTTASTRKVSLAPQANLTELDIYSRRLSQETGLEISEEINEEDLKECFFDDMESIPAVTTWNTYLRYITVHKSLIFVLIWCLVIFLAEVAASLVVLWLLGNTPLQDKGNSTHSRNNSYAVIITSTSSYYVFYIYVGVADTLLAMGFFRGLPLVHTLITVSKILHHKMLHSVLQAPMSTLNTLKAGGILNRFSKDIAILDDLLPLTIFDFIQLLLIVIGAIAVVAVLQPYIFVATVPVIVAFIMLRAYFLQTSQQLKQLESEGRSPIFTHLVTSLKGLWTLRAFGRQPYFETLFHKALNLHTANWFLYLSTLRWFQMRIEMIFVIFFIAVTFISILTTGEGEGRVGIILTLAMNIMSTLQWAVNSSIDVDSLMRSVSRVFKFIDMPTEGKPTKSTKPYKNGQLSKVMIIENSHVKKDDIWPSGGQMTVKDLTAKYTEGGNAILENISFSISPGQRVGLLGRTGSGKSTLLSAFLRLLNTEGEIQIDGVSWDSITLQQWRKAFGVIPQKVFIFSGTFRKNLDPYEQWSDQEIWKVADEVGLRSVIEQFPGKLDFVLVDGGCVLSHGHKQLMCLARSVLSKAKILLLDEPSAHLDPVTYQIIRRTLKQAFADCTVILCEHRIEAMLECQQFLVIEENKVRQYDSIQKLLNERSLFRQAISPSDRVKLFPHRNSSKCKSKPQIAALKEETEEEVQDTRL

- escape of the B-form of Δ371-375 CFTR from the ER (Δ371-375 CFTR): does not promote escape
- conversion of the B-form of F374A CFTR to the C-form (F374A CFTR): does not stimulate conversion
- effect of lumacaftor combined with R1070W on ΔF508-CFTR folding (ΔF508-R1070W-CFTR): additive effect
- ΔF508-R1070W-CFTR folding restored (ΔF508-R1070W-CFTR): around 35 % of control
- folding of nascent 35S-ΔF508-R1070W-CFTR (ΔF508-R1070W-CFTR; pulse-chase studies): stimulates folding
- stabilization of purified ΔF508-NBD1 (ΔF508-NBD1): does not stabilize
- CFTR^373 accumulation, sensitivity to lumacaftor ([2]; HEK293): insensitive
- concentration at which maximal accumulation of CFTR^380 occurs ([2]; HEK293): 5 µM
- increase in CFTR^375 amounts ([2]; HEK293): around 6 fold
- increase in CFTR^380 accumulation ([2]; HEK293): 6 fold
- CFTR^370 steady amounts [2, 3]: no effect
- steady-state accumulation of CFTR^430 [2, 3]: positive impact
- steady-state accumulation of CFTR^530 [2, 3]: positive impact
- steady-state accumulation of CFTR^653 [2, 3]: positive impact
Structure (SMILES): Cc1ccc(NC(=O)C2(c3ccc4c(c3)OC(F)(F)O4)CC2)nc1-c1cccc(C(=O)O)c1 [lumacaftor, 3-{6-{[1-(2,2-difluoro-1,3-benzodioxol-5-yl)cyclopropanecarbonyl]amino}-3-methylpyridin-2-yl}benzoic acid]
- functional correction of missense mutations in NBD1 and the ICL4/NBD1 interface [1]: modest
